Literature values, collected in patent US20030203047A1 (priority 2002, published 2003).
Read-outs that look alike come from different tables or passages of the source.

Key:
[1] = supplementation
[2] = supplementation; remark: listed apart in the source
young female rats = details: constant infusion
aromatase = target: T1, aromatase (Homo sapiens, UniProt P11511); details: compared with chrysin, AG and ANG
T1 sequence (P11511 1-503): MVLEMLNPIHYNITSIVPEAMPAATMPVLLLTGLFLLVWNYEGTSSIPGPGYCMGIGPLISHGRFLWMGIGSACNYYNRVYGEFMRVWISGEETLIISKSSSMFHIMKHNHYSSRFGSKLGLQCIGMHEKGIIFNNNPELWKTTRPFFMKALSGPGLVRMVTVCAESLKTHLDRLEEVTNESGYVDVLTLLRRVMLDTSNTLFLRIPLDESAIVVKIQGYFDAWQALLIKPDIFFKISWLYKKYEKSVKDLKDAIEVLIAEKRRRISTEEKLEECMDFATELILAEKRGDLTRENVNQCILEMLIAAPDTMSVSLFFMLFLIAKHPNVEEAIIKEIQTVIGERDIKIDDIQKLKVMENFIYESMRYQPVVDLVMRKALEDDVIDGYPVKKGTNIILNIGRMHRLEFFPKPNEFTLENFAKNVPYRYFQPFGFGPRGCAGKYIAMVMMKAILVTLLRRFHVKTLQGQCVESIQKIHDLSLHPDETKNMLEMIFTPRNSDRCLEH

[3] = for plasma testosterone: panhypopituitarism
androgen receptor = details: seminal vesicle; relative to the unreduced steroid
[4] = tested on: prostate and seminal vesicle weights; levator ani muscles
hypogonadal men = details: for waking erection: Asian group of hypogonadal men; for sexual interest and activity, spontaneous erection: Caucasian group of hypogonadal men
healthy young men = details: 300 mg/wk for six weeks
HIV-infected men = details: pharmacological doses
[5] = in vivo
patients on dialysis = details: compared with placebo

Structure (SMILES): C[C@]12CC[C@H]3[C@@H](CCC4=C[C@@H](O)CC[C@@]43C)[C@@H]1CC[C@@H]2O [4-androstenediol]
- serum testosterone [1]: elevations
- urine testosterone concentration relative to 4-androstenedione [2]: 10 fold

Structure (SMILES): C[C@]12CCC(=O)C=C1CC[C@@H]1[C@@H]2CC[C@]2(C)C(=O)CC[C@@H]12 [4-androstenedione]
- serum testosterone [1]: elevations

Structure (SMILES): C[C@]12CC[C@H]3[C@@H](CC=C4C[C@@H](O)CC[C@@]43C)[C@@H]1CC[C@@H]2O [5-androstenediol]
- proportion of protein in the body composition (young female rats): increased

Structure (SMILES): COc1ccc(-c2coc3cc(O)cc(O)c3c2=O)cc1 [Biochanin A, 5,7-dihydroxy-4′-methoxyisoflavone]
- aromatase inhibition (in words) (aromatase): to a lesser degree

Structure (SMILES): C[C@]12CC[C@H](O)CC1=CC[C@@H]1[C@@H]2CC[C@]2(C)C(=O)CC[C@@H]12 [DHEA, dehydro-epiandrosterone]
- plasma testosterone ([3]; 50 mg dose): levels similar to those observed in young women
- increase of plasma delta 4-androstenedione ([3]; 50 mg or 200 mg): significant and dose dependent
- plasma estrogens, particularly estradiol ([3]; 50 mg or 200 mg): significant and dose dependent increase
- plasma testosterone ([3]; 200 mg dose): slightly below the levels observed in normal men
- increase of plasma dihydrotestosterone levels ([3]; both doses): small

Structure (SMILES): C[C@]12CCC(=O)C[C@@H]1CC[C@@H]1[C@@H]2CC[C@]2(C)[C@@H](O)CC[C@@H]12 [DHT, 5α-androstan-17β-ol-3-one]
- change of affinity to the androgen receptor on 5-alpha-reduction (androgen receptor): increasing by seven- to eight-fold

Structure (SMILES): C[C@@H]1CC2=CC(=O)CC[C@@H]2[C@H]2CC[C@]3(C)[C@@H](O)CC[C@H]3[C@@H]21 [MENT, 7α-methyl-19-nor-testosterone]
- androgenic potency relative to testosterone ([4]; measured by prostate and seminal vesicle weights): four- to five-times
- anabolic potency relative to testosterone ([4]; measured in the levator ani muscles): ten-times
- waking erection (hypogonadal men): increased
- sexual interest and activity, spontaneous erection (hypogonadal men): significant increases

Structure (SMILES): CCCCCCC(=O)O[C@H]1CC[C@H]2[C@@H]3CCC4=CC(=O)CC[C@]4(C)[C@H]3CC[C@]12C [TE, testosterone enanthate]
- waking erection (hypogonadal men): increased
- sexual interest and activity, spontaneous erection (hypogonadal men): significant increases
- circumferences with significant increases (of fifteen) (healthy young men): shoulders

Structure (SMILES): C[C@]12CC[C@H]3[C@@H](CCC4=CC(=O)CC[C@@]43C)[C@@H]1CC[C@@H]2O [Testosterone]
- proportion of protein in the body composition (young female rats): increased

Structure (SMILES): CCCCCCCCCC(=O)O[C@H]1CC[C@H]2[C@@H]3CCC4=CC(=O)CC[C@@H]4[C@H]3CC[C@]12C [nandrolone decanoate]
- total weight, lean body mass, body cell mass, muscle size and strength (HIV-infected men): significant gains
- circumferences with significant increases (of fifteen) (healthy young men): shoulders and chest

Structure (SMILES): C[C@]12CC[C@H]3[C@@H](CCC4=CC(=O)CC[C@@H]43)[C@@H]1CC[C@@H]2O [nandrolone, 19-nor-testosterone]
- adverse finding associated with use [5]: azoospermia
- decrease in HDL-cholesterol [5]: 25-27%
- lean body mass (patients on dialysis): increased significantly
- energy expenditure (young female rats): increased
